Patent US4227002A, “Halo-A-23187 derivatives” (Eli Lilly and Company, priority 1978, dated 1980)
“Also recorded” adds a separate entry of the source.

Tests used:
[1] = acute toxicity in mice, intraperitoneal; type: in vivo; conditions: mouse, in vivo, ip, intraperitoneally
Protocol: (§1) The compounds of the present invention are, in general, less toxic than the parent antibiotic. Table II summarizes the acute toxicities of representative compounds in mice, expressed as LD50, when the compounds are administered intraperitoneally.

[2] = biological target: cation transport ATPase in liver mitochondria; assay: inhibition of cation transport ATPase in liver mitochondria, in vitro; type: biochemical
Source text: In yet another aspect, the compounds of this invention are active as inhibitors of the enzyme ATPase. ATPase, an alkali-metal-sensitive enzyme found in cell membranes, is involved in the energy necessary for active transport. "Active transport" refers to the energy-requiring series of operations whereby intracellular and extracellular fluids maintain their compositions. Inhibitors of ATPase reduce the energy required for active transport. Table V summarizes the results of in vitro tests measuring inhibition of cation transport ATPase in liver mitochondria [measured as half effective concentration (Ic 50) in mcg/ml].

[3] = test system: Staphylococcus aureus (H-Heatley strain, NRRL B-314); assay: antibacterial bioassay (J. E. Westhead); type: cell-based
Source text: The compounds of this invention are useful antibacterial agents. In this aspect, these compounds may be used in the same manner in which the parent antibiotic is used, as described in U.S. Pat. No. 3,923,823. A bioassay for the antibacterial activity of A-23187 has been described by J. E. Westhead in Antimicrobial Agents and Chemotherapy 11 (5), 916-918 (1977). The test organism for this bioassay is Staphylococcus aureus (H-Heatley strain, NRRL B-314).

mice = assay: acute toxicity in mice, intraperitoneal; type: in vivo; conditions: intraperitoneally
Protocol: as §1

[4] = test system: isolated guinea-pig atria; assay: cardiac contractility in isolated guinea-pig atria; conditions: 10^-5 molar
Source text: The compounds of this invention are also potential cardiotonic agents. […] Response to this test is expressed as a percentage of the maximal contractile tension that could be elicited by a challenge dose of norepinephrine (10^-4 M). For a more detailed description of this test, see U.S. Pat. No. 3,985,893. In this test, 4-bromo-A-23187 free acid and its Mg^++ salt, each at a 10^-5 molar concentration, produced mean increases in contractile tension of 48 and 59 percent, respectively.

Bovine Sperum = conditions: bovine sperm; untreated: 2
mammalian sperm [5] = conditions: cited from earlier work
[6] = cited from earlier work
bovine spermatozoa = assay: Ca^++ influx induced in bovine spermatozoa, inhibition by Mg^++; type: cell-based; conditions: for Ca^++ Influx: bovine spermatozoa
Source text: The compounds of this invention affect ion transport with altered selectivities compared to the parent compound.

Cuinea Pig Sperm = assay: effect on acrosome reaction, guinea pig sperm; type: cell-based; conditions: untreated: 110
Source text: Table IV summarizes the effect of an illustrative compound of this invention on mammalian sperm motility and acrosome reaction.

mammalian sperm [7] = conditions: cited from earlier work; remark: listed apart in the source
[8] = ATPase induced by K^+ monazomycin

In the case of `CNc1c(Cl)cc2oc(CC3OC4(CCC3C)OC(C(C)C(=O)c3ccc[nH]3)C(C)CC4C)nc2c1C(=O)O` (stereo not drawn) [4-chloro-A-23187 (free acid), 6-bromo(or chloro)-5-(methylamino)-2-[[3β,9α,-11β-trimethyl-8-[1α-methyl-2-oxo-2-(1H-pyrrol-2-yl)ethyl]-1,7-dioxaspiro[5.5]undec-2β-yl]-methyl]-4-benzoxazolecarboxylic acid], the LD50 [1] was 10.5 mg/kg, the “half effective concentration (Ic 50)” value ([2]; ATPase induced by CaCl2) was 10 µg/mL and the “half effective concentration (Ic 50)” value [2, 8] was 0.2 µg/mL. It also gave a Bioassay [3] of 298 µg/mL.
For `CNc1ccc2oc(CC3OC4(CCC3C)OC(C(C)C(=O)c3cc(Cl)c[nH]3)C(C)CC4C)nc2c1C(=O)[O-].CNc1ccc2oc(CC3OC4(CCC3C)OC(C(C)C(=O)c3cc(Cl)c[nH]3)C(C)CC4C)nc2c1C(=O)[O-].[Mg+2]` (stereo not drawn) [4-chloro-A-23187 (Mg complex)], the LD50 (mice) was 29.8 mg/kg × 1.
For `CNc1ccc2oc(CC3OC4(CCC3C)OC(C(C)C(=O)c3cc(Br)c[nH]3)C(C)CC4C)nc2c1C(=O)[O-].CNc1ccc2oc(CC3OC4(CCC3C)OC(C(C)C(=O)c3cc(Br)c[nH]3)C(C)CC4C)nc2c1C(=O)[O-].[Mg+2]` (stereo not drawn) [4-bromo-A-23187 (Mg complex)], the LD50 (mice) was 18.75 mg/kg × 1 and the “mean increase in contractile tension, percentage of the maximal contractile tension elicited by norepinephrine (10^-4 M)” value [4] was 59%.
In the case of `CNc1ccc2oc(CC3OC4(CCC3C)OC(C(C)C(=O)c3ccc[nH]3)C(C)CC4C)nc2c1C(=O)O` (stereo not drawn) [A-23187 (free acid), reference compound], the “Motility Index” value (Bovine Sperum) is given as 4, the “activation of sperm motility (in words)” value (mammalian sperm [5]) is given as “activates the motility” and the “selectivity for transport of divalent over monovalent cations (in words)” value [6] is given as “substantially selective for the transport of divalent over monovalent cations; also recorded: not complete”. For the same compound, the LD50 [1] was 5.8 mg/kg, the “Ca^++ Influx” value (bovine spermatozoa; [Mg^++ ]/[Ca^++ ] 0) was 3.5 nmole Ca^++ min × mg protein and the “Ca^++ Influx” value (bovine spermatozoa; [Mg^++ ]/[Ca^++ ] 5) was 2.0 nmole Ca^++ min × mg protein. The “Ca^++ Influx” value (bovine spermatozoa; [Mg^++ ]/[Ca^++ ] 10) was 1.2 nmole Ca^++ min × mg protein, the “Ca^++ Influx” value (bovine spermatozoa; [Mg^++ ]/[Ca^++ ] 20) was 0.5 nmole Ca^++ min × mg protein and the “half effective concentration (Ic 50)” value ([2]; ATPase induced by CaCl2) was 0.5 µg/mL. For the same compound, the “half effective concentration (Ic 50)” value [2, 8] was 0.5 µg/mL, the “Time Until Acrosome Reaction” value (Cuinea Pig Sperm) was 30 min and the Bioassay [3] was 1060 µg/mL. The “induction of acrosome reaction (in words)” value (mammalian sperm [7]) was “induces the acrosome reaction”.
`CNc1c(Br)cc2oc(CC3OC4(CCC3C)OC(C(C)C(=O)c3[nH]c(Br)c(Br)c3Br)C(C)CC4C)nc2c1C(=O)O` (stereo not drawn) [6-bromo-5-(methylamino)-2-[[3β,9α,11β-trimethyl-8-[1α-methyl-2-oxo-2-(3,4,5-tribromo-1H-pyrrol-2-yl)ethyl]-1,7-dioxaspiro[5.5]undec-2β-yl]methyl]-4-benzoxazolecarboxylic acid] showed a Bioassay [3] of 585 µg/mL.
For `CNc1c(Br)cc2oc(CC3OC4(CCC3C)OC(C(C)C(=O)c3cc(Br)c[nH]3)C(C)CC4C)nc2c1C(=O)O` (stereo not drawn) [4,23-dibromo-A-23187 (free acid), 6-bromo-5-(methylamino)-2-[[3β,9α,11β-trimethyl-8-[1α-methyl-2-oxo-2-(4-bromo-1H-pyrrol-2-yl)ethyl]-1,7-dioxaspiro[5.5]undec-2β-yl]methyl]-4-benzoxazolecarboxylic acid], the “half effective concentration (Ic 50)” value ([2]; ATPase induced by CaCl2) was 0.9 µg/mL, the “half effective concentration (Ic 50)” value [2, 8] was 0.5 µg/mL and the Bioassay [3] was 940 µg/mL.
With `CNc1c(Br)cc2oc(CC3OC4(CCC3C)OC(C(C)C(=O)c3ccc[nH]3)C(C)CC4C)nc2c1C(=O)O` (stereo not drawn) [4-bromo-A-23187 (free acid), 6-bromo(or chloro)-5-(methylamino)-2-[[3β,9α,-11β-trimethyl-8-[1α-methyl-2-oxo-2-(1H-pyrrol-2-yl)ethyl]-1,7-dioxaspiro[5.5]undec-2β-yl]-methyl]-4-benzoxazolecarboxylic acid] the “Motility Index” value (Bovine Sperum) was 5, the LD50 [1] was 11.9 mg/kg and the “Ca^++ Influx” value (bovine spermatozoa; [Mg^++ ]/[Ca^++ ] 0) was 3.4 nmole Ca^++ min × mg protein. The “Ca^++ Influx” value (bovine spermatozoa; [Mg^++ ]/[Ca^++ ] 20) was 3.4 nmole Ca^++ min × mg protein, the “Ca^++ Influx” value (bovine spermatozoa; [Mg^++ ]/[Ca^++ ] 40) was 3.4 nmole Ca^++ min × mg protein and the “Ca^++ Influx” value (bovine spermatozoa; [Mg^++ ]/[Ca^++ ] 80) was 0.5 nmole Ca^++ min × mg protein. For the same compound, the “effectiveness of Mg^++ in inhibiting the induced influx of Ca^++ (in words)” value (bovine spermatozoa; compared with comparable dosage of A-23187) was “much less effective”, the “half effective concentration (Ic 50)” value ([2]; ATPase induced by CaCl2) was 0.9 µg/mL and the “half effective concentration (Ic 50)” value [2, 8] was 0.3 µg/mL. For the same compound, the “Time Until Acrosome Reaction” value (Cuinea Pig Sperm) was 30 min, the Bioassay [3] was 835 µg/mL and the activation at 10 µM ([4]; Cavia porcellus, read-out: mean increase in contractile tension, percentage of the maximal contractile tension elicited by norepinephrine (10^-4 M)) was 48%.
